Earlier results as cited in article PMC4891657, “Orexin 2 Receptor Antagonism is Sufficient to Promote NREM and REM Sleep from Mouse to Man” (Scientific Reports, 2016).

Key:
OX2R relative to OX1R = conditions: cited from earlier work
OX2R = system: OX2R; parameters: method as in PMID 24376396, PMID 24368893; conditions: mice, 50 mg/kg ref 37, 38; cited from earlier work

Compound: Cc1cc(NC(=O)Nc2ccc(N(C)C)cc2)c2cc(F)cc(F)c2n1 [SB-408124]
- OX1R selective (OX2R relative to OX1R): ~ 64 x

Compound: Cc1cc(C)nc(N2CC3CN(C(=O)c4c(F)cccc4-n4nccn4)CC3C2)n1 (centres unmarked) [JNJ-42847922]
- binding selectivity for OX2R relative to OX1R (OX2R relative to OX1R): ~ 80 fold

Compound: COc1ccnc(N2CCC3(CCCN(Cc4c[nH]c5ccccc45)C3=O)CC2)n1 [IPSU]
- OX2R/OX1R selectivity (OX2R relative to OX1R): 6.2 fold
- calculated OX2R occupancy achieved (OX2R): 48%

Compound: CC1(C)OC[C@H](NC(=O)Nc2ccc(Br)cc2Br)[C@H](c2ccccc2)O1 [JNJ-10397049]
- OX2R selective (OX2R relative to OX1R): ~ 320 x
